Experimental data taken from patent US11116778B2, “Prodrugs of ALOX-15 inhibitors and methods of using the same” (EMPIRICO INC., priority 2019, dated 2021).

Experiments:
[1] = molecular target: T1, alkaline phosphatase (Bos taurus, UniProt P19111); test: in vitro; assay type: in vitro ADME, Calf; conditions: calf (bovine), pH 8.8
T1 construct: purchased EMD Millipore 524572
Protocol: (§1) To determine if there was effect of addition phosphatase to the phosphate, 30 units of alkaline phosphatase (EMD Millipore Phosphatase, Alkaline, Calf Intestine catalog number 524572) was added to compound 5 and the UV spectrum (210-600 nm) was measured before and after addition of phosphatase. The was a shift in the absorbance maximum from 250 to 260 nm. The ratio of 250/260 went from 0.924 to 1.067 after phosphatase treatment.
(§2) Phosphatase treatment was repeated with 0.1 unit of phosphatase (56 ug) and 0.6 mM compound 5 at a volume of 100 uL (100 mM Tris pH 8.8, 5 mM MgCl2) and monitored as function of time. […] A unit is defined as the amount that can hydrolyze 1 μmol/min of p-nitrophenyl phosphate (PNP). Meaning that 0.1 unit of enzyme was hydrolyzing 0.015 units of phosphate: a ˜6.6 fold decrease in activity relative to PNP.

[2] = molecular target: T2, alkaline phosphatase (Phosphatase, Alkaline, Calf Intestine) (Bos taurus, UniProt P19111); test: in vitro; assay type: in vitro ADME
T2 construct: purchased EMD Millipore 524572
Protocol: as §1, §2

[3] = tested on: ALOX15 mRNA; test: ALOX15 mRNA by RT-qPCR in human nasal epithelial primary cells; assay type: cell-based; conditions: 5 μM or 1 μM, 3 x 24 hours with 20 ng/mL IL-13
Protocol: Human nasal epithelial primary cells (HNEpC) (PromoCell GmbH, Heidelberg, Germany) were cultured according to the manufacturer in provided Primary Cell media in 24 well plates at a density of 25,000 cells per well. Cells were treated with 5 μM or 1 μM of compound 5 or vehicle only (water) in media containing 20 ng/mL IL-13 for 24 hours in a 37° C. cell culture incubator. The following day, media was replaced and fresh media containing 20 ng/mL IL-13 and compound 5 or vehicle was added to each well, then incubated again for 24 hours in a 37° C. cell culture incubator. The process was repeated once more for a 24-hour period.
ALOX15 and POSTN mRNA levels were measured by RT-qPCR. […] The level of ALOX15 mRNA from each sample was measured in triplicate by real-time qPCR on an Applied Biosystems 7500 Fast Real-Time PCR machine using the TaqMan Gene Expression Assay for human ALOX15 (ThermoFisher, assay #Hs00993765_g1). The level of PPIA mRNA was measured in biplex reactions using TaqMan Gene Expression Assay (ThermoFisher, assay #Hs99999904_ml) and used to determine relative ALOX15 mRNA levels in each well using the delta-delta Ct method. […] Relative POSTN mRNA levels were measured as above using TaqMan Gene Expression Assay specific for human POSTN mRNA (ThermoFisher, assay #Hs00170815_m1). […]

[4] = molecular target: T3, 15-lipoxygenase in primary peripheral blood eosinophils (Homo sapiens, UniProt P16050); test: Inhibition of 15-lipoxygenase in human primary eosinophils, 15(S)-HETE ELISA; conditions: 3 μM arachidonic acid
T3 sequence (P16050 1-662): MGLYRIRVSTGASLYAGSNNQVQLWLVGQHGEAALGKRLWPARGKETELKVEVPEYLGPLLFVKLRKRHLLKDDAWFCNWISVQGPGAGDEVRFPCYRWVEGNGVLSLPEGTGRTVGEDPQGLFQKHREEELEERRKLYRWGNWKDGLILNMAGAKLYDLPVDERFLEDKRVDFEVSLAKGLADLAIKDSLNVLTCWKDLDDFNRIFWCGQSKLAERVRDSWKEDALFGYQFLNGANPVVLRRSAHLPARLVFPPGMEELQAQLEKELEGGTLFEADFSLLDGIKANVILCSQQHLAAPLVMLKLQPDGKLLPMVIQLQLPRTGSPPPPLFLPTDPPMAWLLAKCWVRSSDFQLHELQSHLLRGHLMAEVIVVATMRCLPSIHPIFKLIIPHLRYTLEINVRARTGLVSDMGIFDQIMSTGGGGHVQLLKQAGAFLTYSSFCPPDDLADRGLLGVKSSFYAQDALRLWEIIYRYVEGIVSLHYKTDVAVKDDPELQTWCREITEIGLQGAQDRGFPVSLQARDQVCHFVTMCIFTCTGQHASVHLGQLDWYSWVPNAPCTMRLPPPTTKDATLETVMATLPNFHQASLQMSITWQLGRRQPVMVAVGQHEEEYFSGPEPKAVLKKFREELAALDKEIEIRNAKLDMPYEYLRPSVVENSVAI
Protocol: Primary peripheral blood eosinophils from 2 separate donors (StemExpress) were thawed from frozen and allowed to recover in growth media for 4 hours at 37° C. Cells were washed with Hank's Balanced Salt Solution, then aliquoted into 96 well round bottomed plate at 1*10^5 cells/well, 200 μL/well. […] Arachidonic acid was added to final concentration of 3 μM and experiment started. At 1 hour post-treatment the supernatant was collected and 15(S)-HETE was quantified by ELISA (Cayman Chemical) according to manufacturer's recommended protocol. Comparisons were made between the cells treated with the test compounds and cells treated with vehicle only.

T2 sequence (P19111 20-506): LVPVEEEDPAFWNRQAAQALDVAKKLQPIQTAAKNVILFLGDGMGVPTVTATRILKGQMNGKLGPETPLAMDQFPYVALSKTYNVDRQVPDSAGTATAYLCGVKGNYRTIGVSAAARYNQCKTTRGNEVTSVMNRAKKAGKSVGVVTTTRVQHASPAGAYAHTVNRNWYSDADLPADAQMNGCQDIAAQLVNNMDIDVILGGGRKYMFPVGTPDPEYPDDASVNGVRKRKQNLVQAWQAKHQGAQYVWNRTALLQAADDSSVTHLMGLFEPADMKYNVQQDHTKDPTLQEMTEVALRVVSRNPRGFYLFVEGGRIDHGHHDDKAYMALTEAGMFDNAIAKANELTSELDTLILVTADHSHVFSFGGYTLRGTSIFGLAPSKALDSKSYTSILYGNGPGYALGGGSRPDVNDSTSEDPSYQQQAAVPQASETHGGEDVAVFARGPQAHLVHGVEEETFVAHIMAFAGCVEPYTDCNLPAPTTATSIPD
T1 sequence (P19111 20-506): as above

half-life at 0.6 mM [1]: 2 min
decrease in phosphatase activity relative to PNP (p-nitrophenyl phosphate) ([2]; 0.1 unit of enzyme hydrolyzing 0.015 units of phosphate): ~6.6 fold
rate at which the phosphatase cleaved the phosphate ([2]; 0.1 unit phosphatase, 0.6 mM compound 5, 100 uL): 0.015 µmol/min
decrease in 15-HETE production compared to vehicle or ALP alone (FIG. 2) ([4]; 10 μM pretreated 15 minutes with 0.2 U alkaline phosphatase (ALP), 1 hour): approximately 60%
decrease in 15-HETE production compared to vehicle or ALP alone (FIG. 2) ([4]; 10 μM, 1 hour post-treatment): approximately 40%
Compound: O=C(Nc1ccc(F)cc1Cl)c1nn(COP(=O)(O)O)c(Cl)c1Cl [compound 5, (4,5-dichloro-3-((2-chloro-4-fluorophenyl)carbamoyl)-1H-pyrazol-1-yl)methyl dihydrogen phosphate]
relative level of ALOX15 mRNA versus vehicle (FIG. 7) [3]: lower
